Test results published in PMC10221469 (Viruses, 2023).
Read-outs that look alike come from different tables or passages of the source.

Key:
SARS-CoV-2 [1] = assay: qPCR readout of viral replication in Vero E6 cells; format: cell-based; conditions: Severe acute respiratory syndrome coronavirus 2, Vero C1008, viral replication by qPCR
in vitro [2] = conditions: african green monkey
A549 ACE2+ cells = conditions: 48 h, CellTiter-Glo
SARS-CoV-2 [3] = assay: microbe, parasite or virus in culture; format: cell-based; conditions: for IC50: read-out: IC50 (anti-viral activity)
in vitro [4] = conditions: human, CC50, A549 ACE2+ cells, 48 h, CellTiter-Glo
SARS-CoV-2 [5] = assay: microbe, parasite or virus in culture; format: cell-based; conditions: Severe acute respiratory syndrome coronavirus 2, Vero C1008; read-out: CPE IC50
SARS-CoV-2 nsp13 = SARS-CoV-2 nsp13 (Severe acute respiratory syndrome coronavirus 2, UniProt P0DTD1); assay: biochemical; conditions: 1 nM nsp13, 1 mM ATP, 15 min at 37 °C; unit printed in b45 only; read-out: IC50 nsp13 helicase unwinding activity
serine protease TMPRSS2 = target: T1, serine protease TMPRSS2 (Homo sapiens, UniProt O15393); assay: TMPRSS2 inhibition (Axxam S.p.A. proprietary assay); format: biochemical
T1 construct: Axxam S.p.A. (assay provider)

SARS-CoV-2 [6] = assay: microbe, parasite or virus in culture; format: cell-based; conditions: Severe acute respiratory syndrome coronavirus 2, A549 ACE2+ cells, 48 h p.i., read-out: inhibition of viral titer (plaque reduction)
[7] = Severe acute respiratory syndrome coronavirus 2, A549-ACE2, 48 h
[8] = ratio of CC50 over IC50, A549 ACE2+ cells

T1 sequence (O15393 whole entry): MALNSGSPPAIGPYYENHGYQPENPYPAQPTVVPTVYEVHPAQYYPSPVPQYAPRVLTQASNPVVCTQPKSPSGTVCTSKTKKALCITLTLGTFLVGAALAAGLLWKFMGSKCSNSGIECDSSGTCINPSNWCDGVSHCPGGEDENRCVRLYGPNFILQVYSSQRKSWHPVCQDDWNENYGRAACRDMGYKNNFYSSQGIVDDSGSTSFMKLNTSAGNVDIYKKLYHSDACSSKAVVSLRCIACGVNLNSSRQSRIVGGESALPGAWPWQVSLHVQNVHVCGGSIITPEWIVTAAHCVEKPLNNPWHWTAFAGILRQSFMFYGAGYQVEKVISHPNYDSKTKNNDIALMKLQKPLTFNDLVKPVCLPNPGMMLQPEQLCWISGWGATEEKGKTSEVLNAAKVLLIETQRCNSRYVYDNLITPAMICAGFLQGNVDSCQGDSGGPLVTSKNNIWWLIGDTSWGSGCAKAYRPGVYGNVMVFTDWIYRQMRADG

SMILES: Nc1nc(N)c2nc(CNc3ccc(C(=O)N[C@@H](CCC(=O)O)C(=O)O)cc3)cnc2n1 [Aminopterin]
- IC50 (SARS-CoV-2 [1]): 0.08 µM
- CC50 (in vitro [2]): > 33 µM
- CC50 (A549 ACE2+ cells): 2.49 µM
- SI (selectivity index) (SARS-CoV-2 [3]): 1.9
- IC50 (SARS-CoV-2 [3]; [7]): > 1.5 µM
- IC50 (SARS-CoV-2 [3]): 1.3 µM
- CC50 (in vitro [4]): > 2 µM
- IC50 (SARS-CoV-2 [5]): 0.33 µM
- IC50 (SARS-CoV-2 nsp13): 2.59 µM

SMILES: CN(Cc1cnc2nc(N)nc(N)c2n1)c1ccc(C(=O)N[C@@H](CCC(=O)O)C(=O)O)cc1 [Methotrexate hydrate]
- IC50 (SARS-CoV-2 [1]): 0.44 µM
- CC50 (in vitro [2]): > 33 µM
- IC50 (SARS-CoV-2 [3]; [7]): 0.63 µM
- CC50 (in vitro [4]): 1.18 µM
- IC50 (serine protease TMPRSS2): > 30 µM
- inhibition at 1.25 µM (SARS-CoV-2 [6]; 1.25 µM): 94%
- inhibition at 2.5 µM (SARS-CoV-2 [6]; 2.5 µM): 98%
- IC50 (SARS-CoV-2 [5]): 2.81 µM
- IC50 (SARS-CoV-2 nsp13): 2.03 µM

SMILES: Nc1nc2[nH]cc(CCc3ccc(C(=O)N[C@@H](CCC(=O)O)C(=O)O)cc3)c2c(=O)[nH]1 [Pemetrexed disodium heptahydrate]
- CC50 (A549 ACE2+ cells): 2.43 µM
- IC50 (SARS-CoV-2 [3]): 5 µM
- CC50 (in vitro [4]): > 2 µM

SMILES: C#CCC(Cc1cnc2nc(N)nc(N)c2n1)c1ccc(C(=O)N[C@@H](CCC(=O)O)C(=O)O)cc1 (stereo partly drawn) [Pralatrexate]
- IC50 (SARS-CoV-2 [1]): 0.08 µM
- CC50 (in vitro [2]): > 33 µM
- SI (selectivity index) (SARS-CoV-2 [3]): 2
- IC50 (SARS-CoV-2 [3]; [7]): 0.004 µM
- CC50 (in vitro [4]): 0.008 µM
- IC50 (serine protease TMPRSS2): 0.45 µM
- inhibition at 0.019 µM (SARS-CoV-2 [6]): 90.4%
- inhibition at 0.039 µM (SARS-CoV-2 [6]): 96.5%
- IC50 (SARS-CoV-2 [5]): 0.05 µM
- IC50 (SARS-CoV-2 nsp13): 0.14 µM

SMILES: Cc1nc2ccc(CN(C)c3ccc(C(=O)N[C@@H](CCC(=O)O)C(=O)O)s3)cc2c(=O)[nH]1 [Raltitrexed]
- SI (selectivity index) (SARS-CoV-2 [3]; [8]): 0.2
- CC50 (in vitro [4]): 0.89 µM
- IC50 (SARS-CoV-2 nsp13): 3.22 µM

SMILES: CCC(CC)COC(=O)[C@H](C)N[P@](=O)(OC[C@H]1O[C@@](C#N)(c2ccc3c(N)ncnn23)[C@H](O)[C@@H]1O)Oc1ccccc1 [Remdesivir]
- IC50 (SARS-CoV-2 [1]): 3.2 µM
- CC50 (in vitro [2]): > 33 µM
- IC50 (SARS-CoV-2 [5]): 2.74 µM

SMILES: COc1cc(NCc2ccc3nc(N)nc(N)c3c2C)cc(OC)c1OC [Trimetrexate]
- IC50 (SARS-CoV-2 [1]): 0.08 µM
- CC50 (in vitro [2]): > 33 µM
- IC50 (SARS-CoV-2 [3]; [7]): 0.007 µM
- SI (selectivity index) (SARS-CoV-2 [3]; [8]): 1.4
- CC50 (in vitro [4]): 0.01 µM
- IC50 (serine protease TMPRSS2): > 30 µM
- inhibition at 0.009 µM (SARS-CoV-2 [6]; 0.009 µM): 86%
- inhibition at 0.019 µM (SARS-CoV-2 [6]): 97.5%
- inhibition at 0.039 µM (SARS-CoV-2 [6]): 96.5%
- IC50 (SARS-CoV-2 [5]): 0.34 µM
- IC50 (SARS-CoV-2 nsp13): 1.56 µM
